# Laboratory results as given in patent US20260201008A1, “SECRETIN-DERIVED GLP1R SELECTIVE AGONISTS” (GUBRA A/S, priority 2023, published 2026).
# Like-named read-outs stand apart in the source and are kept apart here. Numbered stars: 1 amine (or outer) side, 2 acyl side, 3 side chain; on linkers, the order of the positions; unused ones are H or OH. Square brackets hold non-standard residues; d marks the D form. Side chains are listed from the residue outwards. Peptide text beside a SMILES is read from it. * marks the point of attachment. C20 diacid = O=C(O)CCCCCCCCCCCCCCCCCCC(=O)*; γGlu = O=C(O)[C@H](CCC(=O)[*:2])N[*:1]; AEEA = NCCOCCOCC(=O)O; Aib = CC(C)(N)C(=O)O
# Key:
# GLP1R = GLP1R (Homo sapiens, UniProt P43220); test: hGLP1R potency, cAMP accumulation in CHO-K1 cells stably overexpressing hGLP1R; type: cell-based; parameters: host or cells: CHO-K1; settings: for Selectivity: SCTR EC50/GLP1R EC50 ratio; for EC50: cAMP accumulation; for SCTR EC50/GLP1R EC50 ratio: cAMP accumulation in CHO-K1 cells
# Method in brief: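 In the presence of 0.5 mM IBMX, compounds stimulated the cells for 30 minutes at room temperature. Accumulated cAMP was then detected by TR-FRET, with EC50 values fitted by variable-slope nonlinear regression.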
# SCTR = SCTR (Homo sapiens, UniProt P47872); test: hSCTR potency, cAMP accumulation in CHO-K1 cells stably overexpressing hSCTR; type: cell-based; parameters: alternatively Euroscreen ES-712-AF; FAST-0161L; host or cells: CHO-K1; settings: cAMP accumulation
# Method in brief: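 In this Gs cAMP assay, stably transfected CHO-K1 hSCTR cells were stimulated at room temperature for 30 min in IBMX-containing buffer. Time-resolved FRET gave the signal. Replicates were increased when the top concentration changed or EC50 values differed 5-fold.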
# [1] = Fibril formation of crude library peptides (Thioflavin T); type: physicochemical; parameters: key: average ThT fluorescence emission at 480 nm (ex 450 nm), raw units; settings: Physical stability of peptides
# Method in brief: (§1)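 Fibril formation is scored as average ThT fluorescence from duplicate samples monitored for 72 h at 40° C with shaking stress. Turbidity is the absorbance at 600 nm taken before heating. Peptide concentration was 267 μM at pH 4.0 or pH 7.0.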
# [2] = Turbidity of crude library peptides (absorbance at 600 nm); type: physicochemical; settings: Physical stability of peptides
# Method in brief: as §1
# [3] = CHO-K1 cells overexpressing hGLP1R, read-out: pEC50 hGLPR1 (converted)
# [4] = CHO-K1 cells overexpressing hSCTR, read-out: pEC50 hSCTR (converted)
# [5] = CHO-K1 cells overexpressing hGLP1R, read-out: hGLP1R pEC50 (converted)
# [6] = selectivity for hGLP1R over hSCTR
# [7] = CHO-K1 cells overexpressing hSCTR, read-out: hSCTR pEC50 (converted)
# [8] = CHO-K1 cells stably overexpressing hGLP1R, read-out: hGLP1R potency (pEC50) (converted)
# [9] = selectivity ratio, hSCTR vs hGLP1R
# [10] = CHO-K1 cells stably overexpressing hSCTR, read-out: hSCTR potency (pEC50) (converted)
# Chain of SCTR (P47872 23-440): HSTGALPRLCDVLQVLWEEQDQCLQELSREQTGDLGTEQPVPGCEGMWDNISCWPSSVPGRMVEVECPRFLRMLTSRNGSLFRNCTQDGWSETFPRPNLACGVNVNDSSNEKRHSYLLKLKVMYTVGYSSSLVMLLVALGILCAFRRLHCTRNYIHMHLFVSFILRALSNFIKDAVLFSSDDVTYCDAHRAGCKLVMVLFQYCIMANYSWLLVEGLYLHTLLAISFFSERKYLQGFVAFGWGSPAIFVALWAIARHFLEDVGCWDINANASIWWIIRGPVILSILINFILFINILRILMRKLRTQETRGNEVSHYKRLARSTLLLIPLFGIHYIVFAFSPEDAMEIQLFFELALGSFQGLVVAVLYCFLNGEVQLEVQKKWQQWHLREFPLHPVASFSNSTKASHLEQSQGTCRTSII
# Chain of GLP1R (P43220 24-463): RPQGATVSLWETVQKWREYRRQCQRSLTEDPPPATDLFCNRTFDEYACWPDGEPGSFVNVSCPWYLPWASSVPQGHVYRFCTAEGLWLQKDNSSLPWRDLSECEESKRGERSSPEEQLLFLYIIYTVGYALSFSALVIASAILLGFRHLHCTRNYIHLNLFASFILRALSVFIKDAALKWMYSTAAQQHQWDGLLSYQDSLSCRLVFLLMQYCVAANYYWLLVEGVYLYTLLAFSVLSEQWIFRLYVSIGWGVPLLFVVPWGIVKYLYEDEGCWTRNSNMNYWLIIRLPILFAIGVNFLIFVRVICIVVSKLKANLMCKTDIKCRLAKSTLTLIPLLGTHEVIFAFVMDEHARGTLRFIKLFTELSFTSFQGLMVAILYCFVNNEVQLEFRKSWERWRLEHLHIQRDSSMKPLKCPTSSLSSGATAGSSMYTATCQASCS
Structure (SMILES),Selectivity (GLP1R),EC50 (GLP1R; [3]) [nM],EC50 (SCTR; [4]) [nM],Fibril formation [1],Turbidity (pH 7) [2],EC50 (GLP1R; [5]) [nM],SCTR EC50/GLP1R EC50 ratio (GLP1R; [6]),EC50 (SCTR; [7]) [nM],EC50 (GLP1R; [8]) [nM],SCTR EC50/GLP1R EC50 ratio (GLP1R; [9]),EC50 (SCTR; [10]) [nM]
CC(C)C[C@H](NC(=O)[C@H](Cc1ccccc1)NC(=O)[C@H](CCCNC(=N)N)NC(=O)[C@H](CCC(N)=O)NC(=O)[C@H](C)NC(=O)[C@H](C)NC(=O)[C@H](C)NC(=O)[C@H](CCC(=O)O)NC(=O)[C@H](CCC(=O)O)NC(=O)[C@H](CCCCNC(=O)COCCOCCNC(=O)COCCOCCNC(=O)CC[C@H](NC(=O)CCCCCCCCCCCCCCCCCCC(=O)O)C(=O)O)NC(=O)[C@H](CC(C)C)NC(=O)[C@H](CCCNC(=N)N)NC(=O)[C@H](CO)NC(=O)[C@@H](NC(=O)[C@H](CC(=O)O)NC(=O)[C@H](CO)NC(=O)[C@@H](NC(=O)[C@H](Cc1ccccc1)NC(=O)[C@@H](NC(=O)CNC(=O)[C@H](CCC(=O)O)NC(=O)C(C)(C)NC(=O)[C@@H](N)Cc1c[nH]cn1)[C@@H](C)O)[C@@H](C)O)C(C)C)C(=O)N[C@@H](CCC(=O)O)C(=O)N[C@@H](Cc1c[nH]cn1)C(=O)N[C@@H](CC(C)C)C(=O)N[C@H](C(N)=O)C(C)C [compound 60] (H-H[Aib]EGTFTSDVSRLK([AEEA-AEEA-γGlu-C20 diacid])EEAAAQRFLEHLV-NH2),9419,0.0316,251,11873,0.09,,,,,,
CC[C@H](C)[C@H](NC(=O)[C@H](Cc1ccccc1)NC(=O)[C@H](CCCNC(=N)N)NC(=O)[C@H](CCC(N)=O)NC(=O)[C@H](CC(C)C)NC(=O)[C@H](C)NC(=O)[C@H](C)NC(=O)CNC(=O)[C@H](CCC(=O)O)NC(=O)[C@H](CC(C)C)NC(=O)[C@H](CC(C)C)NC(=O)[C@H](Cc1ccc(O)cc1)NC(=O)[C@H](CO)NC(=O)[C@@H]1CCCN1C(=O)[C@H](CC(=O)O)NC(=O)[C@H](CO)NC(=O)[C@@H](NC(=O)[C@H](Cc1ccccc1)NC(=O)[C@@H](NC(=O)CNC(=O)[C@H](CCC(=O)O)NC(=O)C(C)(C)NC(=O)[C@@H](N)Cc1c[nH]cn1)[C@@H](C)O)[C@@H](C)O)C(=O)N[C@@H](CCC(N)=O)C(=O)N[C@@H](Cc1c[nH]c2ccccc12)C(=O)N[C@@H](CC(C)C)C(=O)N[C@H](C(N)=O)C(C)C [compound 128] (H-H[Aib]EGTFTSDPSYLLEGAALQRFIQWLV-NH2),,,,6144,0.20,15.8,1467,20000,,,
CC[C@H](C)[C@H](NC(=O)[C@H](Cc1ccccc1)NC(=O)[C@H](CCCNC(=N)N)NC(=O)[C@H](CCC(N)=O)NC(=O)[C@H](CC(C)C)NC(=O)[C@H](C)NC(=O)[C@H](C)NC(=O)CNC(=O)[C@H](CCC(=O)O)NC(=O)[C@H](CC(C)C)NC(=O)[C@H](CC(C)C)NC(=O)[C@H](CCC(=O)O)NC(=O)[C@H](CO)NC(=O)[C@H](Cc1ccc(O)cc1)NC(=O)[C@H](CC(=O)O)NC(=O)[C@H](CO)NC(=O)[C@@H](NC(=O)[C@H](Cc1ccccc1)NC(=O)[C@@H](NC(=O)CNC(=O)[C@H](CCC(=O)O)NC(=O)C(C)(C)NC(=O)[C@@H](N)Cc1c[nH]cn1)[C@@H](C)O)[C@@H](C)O)C(=O)N[C@@H](CCC(N)=O)C(=O)N[C@@H](Cc1c[nH]c2ccccc12)C(=O)N[C@@H](CC(C)C)C(=O)N[C@H](C(N)=O)C(C)C [compound 199] (H-H[Aib]EGTFTSDYSELLEGAALQRFIQWLV-NH2),,,,260000,0.46,,,,0.0251,223,5.01
CC[C@H](C)[C@H](NC(=O)[C@H](Cc1ccccc1)NC(=O)[C@H](CCCNC(=N)N)NC(=O)[C@H](CCC(N)=O)NC(=O)[C@H](CC(C)C)NC(=O)[C@H](C)NC(=O)[C@H](C)NC(=O)CNC(=O)[C@H](CCC(=O)O)NC(=O)[C@H](CC(C)C)NC(=O)[C@H](CC(C)C)NC(=O)[C@@H](NC(=O)[C@H](CO)NC(=O)C(C)(C)NC(=O)[C@H](CC(=O)O)NC(=O)[C@H](CO)NC(=O)[C@@H](NC(=O)[C@H](Cc1ccccc1)NC(=O)[C@@H](NC(=O)CNC(=O)[C@H](CCC(=O)O)NC(=O)C(C)(C)NC(=O)[C@@H](N)Cc1c[nH]cn1)[C@@H](C)O)[C@@H](C)O)C(C)C)C(=O)N[C@@H](CCC(N)=O)C(=O)N[C@@H](Cc1c[nH]c2ccccc12)C(=O)N[C@@H](CC(C)C)C(=O)N[C@H](C(N)=O)C(C)C [compound 110] (H-H[Aib]EGTFTSD[Aib]SVLLEGAALQRFIQWLV-NH2),,,,3449,0.15,0.2,10257,2000,,,
CC[C@H](C)[C@H](NC(=O)[C@H](Cc1ccccc1)NC(=O)[C@H](CCCNC(=N)N)NC(=O)[C@H](CCC(N)=O)NC(=O)[C@H](CC(C)C)NC(=O)[C@H](C)NC(=O)[C@H](C)NC(=O)CNC(=O)[C@H](CCC(=O)O)NC(=O)[C@H](CC(C)C)NC(=O)[C@H](CC(C)C)NC(=O)CNC(=O)[C@H](CO)NC(=O)[C@H](Cc1c[nH]c2ccccc12)NC(=O)[C@H](CC(=O)O)NC(=O)[C@H](CO)NC(=O)[C@@H](NC(=O)[C@H](Cc1ccccc1)NC(=O)[C@@H](NC(=O)CNC(=O)[C@H](CCC(=O)O)NC(=O)C(C)(C)NC(=O)[C@@H](N)Cc1c[nH]cn1)[C@@H](C)O)[C@@H](C)O)C(=O)N[C@@H](CCC(N)=O)C(=O)N[C@@H](Cc1c[nH]c2ccccc12)C(=O)N[C@@H](CC(C)C)C(=O)N[C@H](C(N)=O)C(C)C [compound 187] (H-H[Aib]EGTFTSDWSGLLEGAALQRFIQWLV-NH2),,,,13388,0.62,,,,0.0398,1437,50.1
CC(C)C[C@H](NC(=O)[C@H](Cc1ccccc1)NC(=O)[C@H](CCCNC(=N)N)NC(=O)[C@H](CCC(N)=O)NC(=O)[C@H](CCC(=O)O)NC(=O)[C@H](C)NC(=O)[C@H](C)NC(=O)[C@@H](NC(=O)[C@H](CCC(=O)O)NC(=O)[C@H](CCCCNC(=O)COCCOCCNC(=O)COCCOCCNC(=O)CC[C@H](NC(=O)CCCCCCCCCCCCCCCCCCC(=O)O)C(=O)O)NC(=O)[C@H](CC(C)C)NC(=O)[C@H](Cc1ccc(O)cc1)NC(=O)[C@H](CO)NC(=O)[C@@H](NC(=O)[C@H](CC(=O)O)NC(=O)[C@H](CO)NC(=O)[C@@H](NC(=O)[C@H](Cc1ccccc1)NC(=O)[C@@H](NC(=O)CNC(=O)[C@H](CCC(=O)O)NC(=O)C(C)(C)NC(=O)[C@@H](N)Cc1c[nH]cn1)[C@@H](C)O)[C@@H](C)O)C(C)C)[C@@H](C)O)C(=O)N[C@@H](CCC(=O)O)C(=O)N[C@@H](Cc1c[nH]cn1)C(=O)N[C@@H](CC(C)C)C(=O)N[C@H](C(N)=O)C(C)C [compound 69] (H-H[Aib]EGTFTSDVSYLK([AEEA-AEEA-γGlu-C20 diacid])ETAAEQRFLEHLV-NH2),1030149,0.0158,15800,14799,0.08,,,,,,
CC(C)C[C@H](NC(=O)[C@H](Cc1ccccc1)NC(=O)[C@H](CCCNC(=N)N)NC(=O)[C@H](CCC(N)=O)NC(=O)[C@H](CO)NC(=O)[C@H](C)NC(=O)[C@H](C)NC(=O)[C@@H](NC(=O)[C@H](CCC(=O)O)NC(=O)[C@H](CCCCNC(=O)COCCOCCNC(=O)COCCOCCNC(=O)CC[C@H](NC(=O)CCCCCCCCCCCCCCCCCCC(=O)O)C(=O)O)NC(=O)[C@H](CC(C)C)NC(=O)[C@H](CCCNC(=N)N)NC(=O)[C@H](CO)NC(=O)[C@@H](NC(=O)[C@H](CC(=O)O)NC(=O)[C@H](CO)NC(=O)[C@@H](NC(=O)[C@H](Cc1ccccc1)NC(=O)[C@@H](NC(=O)CNC(=O)[C@H](CCC(=O)O)NC(=O)C(C)(C)NC(=O)[C@@H](N)Cc1c[nH]cn1)[C@@H](C)O)[C@@H](C)O)C(C)C)[C@@H](C)O)C(=O)N[C@@H](CCC(=O)O)C(=O)N[C@@H](Cc1c[nH]cn1)C(=O)N[C@@H](CC(C)C)C(=O)N[C@H](C(N)=O)C(C)C [compound 71] (H-H[Aib]EGTFTSDVSRLK([AEEA-AEEA-γGlu-C20 diacid])ETAASQRFLEHLV-NH2),13611,0.0631,1000,231646,0.08,,,,,,
